Measurements from patent publication US20220409727A1, “Metal Complexes Bearing Bisstyryl-Bipyridine Ligand and Their Use as Photosensitizer Agent in One and Two-Photon Photodynamic Therapy” (Paris Sciences et Lettres, priority 2019, published 2022).

What was measured:
[1] = Emission measurement in CH3CN; format: physicochemical; conditions: room temperature, excitation at 355 nm
Description: The absorption of the samples was measured with a SpectraMax M2 Spectrometer (Molecular Devices). The emission was measured by irradiation of the sample in fluorescence quartz cuvettes (width 1 cm) using a NT342B Nd-YAG pumped optical parametric oscillator (Ekspla) at 355 nm. Luminescence was focused and collected at right angle to the excitation pathway and directed to a Princeton Instruments Acton SP-2300i monochromator. As a detector, a XPI-Max 4 CCD camera (Princeton Instruments) has been used.

[2] = tested on: human glioblastoma astrocytoma (U373) cells
Description: (§2) The human glioblastoma astrocytoma (U373) cell line was cultured in MEM medium supplemented with 10% FBS, 1% NEAA (non-essential amino-acids) and 1% penicillin/streptomycin. […] The human retinal epithelial cells (RPE-1, non-cancerous cells immortalized with hTERT) were cultured in DMEM-F12 medium supplemented with 10% FBS and 1% penicillin/streptomycin. All cell lines were obtained from the American Type Culture Collection (ATCC) and cultured at 37° C. and 5% CO2. Before an experiment, the cells were passaged three times.
(§3) The cytotoxicity of the compounds was assessed by measuring cell viability using a fluorometric resazurin assay. The cultivated cells were seeded in triplicates in 96 well plates with a density of 4000 cells per well in 100 μL of media. After 24 h, the medium was removed and the cells were treated with increasing concentrations of the compound diluted in cell media achieving a total volume of 200 μL. The cells were incubated with the compound for 4 h. After this time, the media was removed and replaced with 200 μL of fresh medium. For the phototoxicity studies, the cells were exposed to light with an Atlas Photonics LUMOS BIO irradiator. Each well was constantly illuminated with either a 480 nm or 540 nm irradiation. During this time, the temperature was maintained constantly at 37° C. The cells were grown in the incubator for additional 44 h. For the determination of the dark cytotoxicity, the cells were not irradiated and after the medium exchange directly incubated for 44 h. After this time, the medium was replaced with fresh medium containing resazurin with a final concentration of 0.2 mg/mL. After 4 h incubation, the amount of the fluorescent product resorufin was determined upon excitation at 540 nm and measurement its emission at 590 nm using a SpectraMax M2 Microplate Reader (Molecular Devices).
(§4) The obtained data was analyzed with the GraphPad Prism software.

[3] = Luminescence lifetime measurements; format: physicochemical; conditions: excitation at 355 nm; for τ/ns air (Lifetime): air saturated CH3CN; for τ/ns degassed (Lifetime): degassed CH3CN
Description: (§1) For the determination of the lifetimes, the samples were prepared in an air saturated and in a degassed CH3CN solution with an absorbance of 0.2 at 355 nm. This solution was irradiated in fluorescence quartz cuvettes (width 1 cm) using a NT342B Nd-YAG pumped optical parametric oscillator (Ekspla) at 355 nm. The emission signal was focused and collected at right angle to the excitation pathway and directed to a Princeton Instruments Acton SP-2300i monochromator. As a detector a R928 photomultiplier tube (Hamamatsu) has been used.

[4] = Luminescence quantum yield measurements; format: physicochemical; parameters: key: fraction, relative to [Ru(bipy)3]Cl2 reference in CH3CN (Φem=5.9%); conditions: CH3CN, room temperature, excitation at 355 nm
Description: as §1, with “luminescence quantum yield,” for “lifetimes,”, “an” for “an air saturated and in a degassed”, “0.1” for “0.2”, “XPI-Max 4 CCD camera (Princeton Instruments)” for “R928 photomultiplier tube (Hamamatsu)”, “used. The luminescence quantum yields were determined by comparison with the reference [Ru(bipy)3]Cl2 in CH3CN (Φem=5.9%) (Nakamaru, K., 1982) applying the following formula:” for “used.”
Φem, sample=Φem, reference*(Freference/Fsample)*(Isample/Ireference)*(nsample/nreference)^2
Φem=luminescence quantum yield, F=fraction of light absorbed, I=integrated emission intensities, n=refractive index, A=absorbance of the sample at irradiation wavelength.

[5] = tested on: mouse colon carcinoma (CT-26) cells
[6] = tested on: non-cancerous retinal pigment epithelium (RPE-1) cells; assay: (Photo-)cytotoxicity on 2D cell monolayers, resazurin assay, RPE-1; conditions: for PI (480 nm): RPE-1, dark vs 480 nm (10 min, 3.1 J/cm^2); for PI (540 nm): RPE-1, dark vs 540 nm (40 min, 9.5 J/cm^2);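 on all read-outs here: cells exposed to compound 4 h, medium exchanged, then irradiated or kept dark, 44 h further growth, viability by resorufin fluorescence (ex 540 nm, em 590 nm)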
Description: as §2, §3, §4

SMILES | λem/nm (Emission maximum) [1] | IC50 [2] | τ/ns air (Lifetime) [3] | τ/ns degassed (Lifetime) [3] | ϕem (Luminescence Quantum Yield) [4] | IC50 [5] | PI (480 nm) [6] | PI (540 nm) [6]
CN(C)c1ccc(/C=C/c2ccnc(-c3cc(/C=C/c4ccc(N(C)C)cc4)ccn3)c2)cc1.F[P-](F)(F)(F)(F)F.F[P-](F)(F)(F)(F)F.[Ru+2].c1cnc2c(c1)ccc1cccnc12.c1cnc2c(c1)ccc1cccnc12 [Compound 8, [Ru(phen)2((E,E′)-4,4′-Bis[p-(N,N-dimethylamino)styryl]-2,2′-bipyridine)][PF6]2] | 698 nm | 13.3 ± 2.4 µM | 136 ns | 334 ns | 0.004 | 8.2 ± 1.1 µM | >10.9 | >6.4
CN(C)c1ccc(/C=C/c2ccnc(-c3cc(/C=C/c4ccc(N(C)C)cc4)ccn3)c2)cc1.F[P-](F)(F)(F)(F)F.F[P-](F)(F)(F)(F)F.[Ru+2].c1ccc(-c2ccccn2)nc1.c1ccc(-c2ccccn2)nc1 [Compound 6, [Ru(bipy)2((E,E′)-4,4′-Bis[p-(N,N-dimethylamino)styryl]-2,2′-bipyridine)][PF6]2] | 697 nm | 10.7 ± 1.9 µM | 54 ns | 405 ns | 0.005 | 2.4 ± 0.5 µM | >13.7 | >12.3
COc1ccc(/C=C/c2ccnc(-c3cc(/C=C/c4ccc(OC)cc4)ccn3)c2)cc1.COc1ccc(/C=C/c2ccnc(-c3cc(/C=C/c4ccc(OC)cc4)ccn3)c2)cc1.F[P-](F)(F)(F)(F)F.F[P-](F)(F)(F)(F)F.[Ru+2].c1ccc(-c2ccccn2)nc1 [Compound 5, [Ru(bipy)((E,E′)-4,4′-Bis[p-methoxystyryl]-2,2′-bipyridine)2][PF6]2] | 674 nm | 17.8 ± 3.2 µM | 36 ns | 231 ns | 0.014 | 5.1 ± 1.1 µM | >9.8 | >7.9
COc1ccc(C=Cc2ccnc(-c3cc(C=Cc4ccc(OC)cc4)ccn3)c2)cc1.F[P-](F)(F)(F)(F)F.F[P-](F)(F)(F)(F)F.[Ru+2].c1ccc(-c2ccnc3c2ccc2c(-c4ccccc4)ccnc23)cc1.c1ccc(-c2ccnc3c2ccc2c(-c4ccccc4)ccnc23)cc1 [Compound 11, [Ru(4,7-Diphenyl-1,10-phenanthroline)2((E,E′)-4,4′-Bis[p-methoxystyryl]-2,2′-bipyridine)][PF6]2] | 663 nm | 0.7 ± 0.3 µM | 108 ns | 679 ns | 0.027 | 0.5 ± 0.2 µM | 23.1 | 29.7
CN(C)c1ccc(/C=C/c2ccnc(-c3cc(/C=C/c4ccc(N(C)C)cc4)ccn3)c2)cc1.CN(C)c1ccc(/C=C/c2ccnc(-c3cc(/C=C/c4ccc(N(C)C)cc4)ccn3)c2)cc1.F[P-](F)(F)(F)(F)F.F[P-](F)(F)(F)(F)F.[Ru+2].c1ccc(-c2ccccn2)nc1 [Compound 4, [Ru(bipy)((E,E′)-4,4′-Bis[p-(N,N-dimethylamino)styryl]-2,2′-bipyridine)2][PF6]2] | 703 nm | 19 ± 2.8 µM | 69 ns | 417 ns | 0.004 | 7.3 ± 1.4 µM | >9.2 | >6.8
CN(C)c1ccc(/C=C/c2ccnc(-c3cc(/C=C/c4ccc(N(C)C)cc4)ccn3)c2)cc1.F[P-](F)(F)(F)(F)F.F[P-](F)(F)(F)(F)F.[Ru+2].c1ccc(-c2ccnc3c2ccc2c(-c4ccccc4)ccnc23)cc1.c1ccc(-c2ccnc3c2ccc2c(-c4ccccc4)ccnc23)cc1 [Compound 10, [Ru(4,7-Diphenyl-1,10-phenanthroline)2((E,E′)-4,4′-Bis[p-(N,N-dimethylamino)styryl]-2,2′-bipyridine)][PF6]2] | 698 nm | 2.1 ± 0.4 µM | 72 ns | 339 ns | 0.006 | 1.3 ± 0.3 µM | 8.7 | 7.4
COc1ccc(/C=C/c2ccnc(-c3cc(/C=C/c4ccc(OC)cc4)ccn3)c2)cc1.F[P-](F)(F)(F)(F)F.F[P-](F)(F)(F)(F)F.[Ru+2].c1cnc2c(c1)ccc1cccnc12.c1cnc2c(c1)ccc1cccnc12 [Compound 9, [Ru(phen)2((E,E′)-4,4′-Bis[p-methoxystyryl]-2,2′-bipyridine)][PF6]2] | 663 nm | 2.1 ± 0.7 µM | 193 ns | 669 ns | 0.019 | 1.1 ± 0.5 µM | >41.7 | >47.6
